# Data: patent US7112586B2, “Substituted diamine derivatives useful as motilin antagonists” (Ortho-McNeil Pharmaceutical, Inc., priority 2000, dated 2006)
# pIC50: −log10 of the molar value.
# Target: T1, Motilin Receptor (Oryctolagus cuniculus, UniProt G1T803)
# T1 construct: The muscle tissue was homogenized in 10 volumes of 50 mM Tris-Cl; from tissue; host or cells: rabbit colon smooth muscle, crude membrane homogenate
# Assay: Motilin receptor binding, rabbit colon membranes, 125I porcine motilin
# Design: Rabbit Colon % Inh / inhibition / % Inh (Rabbit colon): dose or concentration left out as unconfirmed
# Conditions: not given
# Procedure: Rabbit colon was removed, dissected free from the mucosa and serosa, and diced into small pieces. The muscle tissue was homogenized in 10 volumes of 50 mM Tris-Cl, 10 mM MgCl2, 0.1 mg/ml bacitracin, and 0.25 mM Peflabloc, at pH 7.5 in a Polytron (29000 rpm, 4×15 seconds). The homogenate was centrifuged at 1000×g for 15 minutes and the supernatant discarded. The pellet was washed twice before being suspended in homogenizing buffer. The crude homogenate was resuspended through a 23 gauge needle before storing at −80° C. […] After 60 minutes at 30° C., the samples were cooled in ice, centrifuged in the cold at 13000×g for 1 minute. The pellet was washed twice with 1 ml of cold saline, the supernatant was aspirated, and the pellet at the bottom of the tube counted in a gamma counter. Non-specific binding was determined by the inclusion of 1 mM of unlabeled motilin. IC50 values were determined from Kaleidograph curves.
# T1 sequence (G1T803 1-400): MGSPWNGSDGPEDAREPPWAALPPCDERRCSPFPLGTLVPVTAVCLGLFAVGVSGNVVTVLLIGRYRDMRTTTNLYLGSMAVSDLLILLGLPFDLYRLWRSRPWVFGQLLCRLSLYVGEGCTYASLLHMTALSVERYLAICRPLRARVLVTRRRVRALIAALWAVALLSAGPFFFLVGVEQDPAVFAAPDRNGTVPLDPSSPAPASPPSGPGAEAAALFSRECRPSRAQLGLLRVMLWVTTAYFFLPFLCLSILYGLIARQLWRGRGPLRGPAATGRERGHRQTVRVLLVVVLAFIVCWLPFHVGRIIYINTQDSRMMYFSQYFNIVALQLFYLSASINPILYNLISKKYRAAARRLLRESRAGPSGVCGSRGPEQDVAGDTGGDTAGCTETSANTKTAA
row,SMILES,pIC50
1,O=C(CCCN(C(=O)c1ccc(F)cc1)c1cccc(OCCN2CCOCC2)c1)N(CCc1ccccc1)Cc1ccccc1 [compound 4],6.16

# Same assay, conditions: rabbit colon membranes
row,Rabbit Colon % Inh,SMILES
1,62%,CN(CCOc1cccc(N(CC2CCCC(N(Cc3cccc(Cl)c3)C(=O)C(C)(C)C)C2)C(=O)c2ccc(F)cc2)c1)Cc1ccccc1 (racemic) [compound 232]
2,61%,CN1CCCC1CCOc1cccc(N(CC2CCCC(N(Cc3cccc(Cl)c3)C(=O)C(C)(C)C)C2)C(=O)c2ccc(F)cc2)c1 (racemic) [compound 235]
3,53%,CN1CCCC1CCOc1cccc(N(CC2CCCC(N(Cc3cccc(Cl)c3)C(=O)C(Cl)(Cl)Cl)C2)C(=O)c2ccc(F)cc2)c1 (racemic) [compound 236]
4,6%,Cc1ccc(S(=O)(=O)N(CCCC(=O)N(Cc2ccccc2)Cc2ccccc2)c2cccc(OCCN3CCOCC3)c2)cc1 [compound 24]
5,23%,Cc1ccc(C(=O)N(CCCC(=O)N(Cc2ccccc2)Cc2ccccc2)c2cccc(OCCN3CCOCC3)c2)cc1 [compound 25]
6,22%,O=C(CCCCN(C(=O)Nc1ccccc1)c1cccc(OCCN2CCOCC2)c1)N(Cc1ccccc1)Cc1ccccc1 [compound 26]
7,22%,Cc1ccc(S(=O)(=O)N(CCCCC(=O)N(Cc2ccccc2)Cc2ccccc2)c2cccc(OCCN3CCOCC3)c2)cc1 [compound 27]
8,13%,Cc1ccc(C(=O)N(CCCCC(=O)N(Cc2ccccc2)Cc2ccccc2)c2cccc(OCCN3CCOCC3)c2)cc1 [compound 28]
9,18%,O=C(CCCCN(C(=O)c1ccc(F)cc1)c1cccc(OCCN2CCOCC2)c1)N(Cc1ccccc1)Cc1ccccc1 [compound 29]
10,17%,CCN(Cc1ccc(C)cc1)C(=O)CCCN(C(=O)Nc1ccccc1)c1cccc(OCCN2CCOCC2)c1 [compound 30]
11,39%,CCN(Cc1ccc(C)cc1)C(=O)CCCN(c1cccc(OCCN2CCOCC2)c1)S(=O)(=O)c1ccc(C)cc1 [compound 31]
12,12%,CCN(Cc1ccc(C)cc1)C(=O)CCCN(C(=O)c1ccc(C)cc1)c1cccc(OCCN2CCOCC2)c1 [compound 32]
13,16%,CCN(Cc1ccc(C)cc1)C(=O)CCCN(C(=O)c1ccc(F)cc1)c1cccc(OCCN2CCOCC2)c1 [compound 33]
14,7%,CCN(Cc1ccc(C)cc1)C(=O)CCCCN(C(=O)Nc1ccccc1)c1cccc(OCCN2CCOCC2)c1 [compound 34]
15,17%,CCN(Cc1ccc(C)cc1)C(=O)CCCCN(c1cccc(OCCN2CCOCC2)c1)S(=O)(=O)c1ccc(C)cc1 [compound 35]
16,32%,CCN(Cc1ccc(C)cc1)C(=O)CCCCN(C(=O)c1ccc(C)cc1)c1cccc(OCCN2CCOCC2)c1 [compound 36]
17,11%,CCN(Cc1ccc(C)cc1)C(=O)CCCCN(C(=O)c1ccc(F)cc1)c1cccc(OCCN2CCOCC2)c1 [compound 37]
18,58%,COc1cccc(C(=O)N(Cc2ccccc2)C2CCCC(CN(C(=O)Nc3ccccc3)c3cccc(OCCN4CCOCC4)c3)C2)c1 (stereo not drawn) [compound 41]
19,50%,CC(C)(C)C(=O)N(Cc1ccccc1)C1CCCC(CN(C(=O)Nc2ccccc2)c2cccc(OCCN3CCOCC3)c2)C1 (stereo not drawn) [compound 42]
20,4%,O=C(Nc1ccccc1)N(CC1CCCC(N(Cc2ccccc2)C(=O)c2ccc3ccccc3c2)C1)c1cccc(OCCN2CCOCC2)c1 (stereo not drawn) [compound 44]
21,32%,O=C(Nc1ccccc1)N(CC1CCCC(N(Cc2ccccc2)C(=O)C(c2ccccc2)c2ccccc2)C1)c1cccc(OCCN2CCOCC2)c1 (stereo not drawn) [compound 46]
22,23%,O=C(Nc1ccccc1)N(CC1CCCC(N(Cc2cccc(Cl)c2)C(=O)C(Cl)(Cl)Cl)C1)c1cccc(OCCN2CCOCC2)c1 (stereo not drawn) [compound 47]
23,37%,O=C(Nc1ccccc1)N(CC1CCCC(N(Cc2cccc(Cl)c2)C(=O)c2cc(C(F)(F)F)cc(C(F)(F)F)c2)C1)c1cccc(OCCN2CCOCC2)c1 (stereo not drawn) [compound 49]
24,32%,O=C(Nc1ccccc1)N(CC1CCCC(N(Cc2cccc(Cl)c2)C(=O)c2ccc(-c3ccccc3)cc2)C1)c1cccc(OCCN2CCOCC2)c1 (stereo not drawn) [compound 50]

# The next lines start with the compound.
row,SMILES,Rabbit Colon % Inh
1,Cc1ccc(S(=O)(=O)N(CCCC(=O)N(CCc2ccccc2)Cc2ccccc2)c2cccc(OCCN3CCOCC3)c2)cc1 [compound 2],9%
2,Cc1ccc(C(=O)N(CCCC(=O)N(CCc2ccccc2)Cc2ccccc2)c2cccc(OCCN3CCOCC3)c2)cc1 [compound 3],35%
3,O=C(CCCCN(C(=O)Nc1ccccc1)c1cccc(OCCN2CCOCC2)c1)N(CCc1ccccc1)Cc1ccccc1 [compound 5],40%
4,Cc1ccc(C(=O)N(CCCCC(=O)N(CCc2ccccc2)Cc2ccccc2)c2cccc(OCCN3CCOCC3)c2)cc1 [compound 6],24%
5,O=C(CCCCN(C(=O)c1ccc(F)cc1)c1cccc(OCCN2CCOCC2)c1)N(CCc1ccccc1)Cc1ccccc1 [compound 7],42%
6,CCN(Cc1ccccc1)C(=O)CCCN(C(=O)Nc1ccccc1)c1cccc(OCCN2CCOCC2)c1 [compound 8],18%
7,CCN(Cc1ccccc1)C(=O)CCCN(c1cccc(OCCN2CCOCC2)c1)S(=O)(=O)c1ccc(C)cc1 [compound 9],27%
8,CCN(Cc1ccccc1)C(=O)CCCN(C(=O)c1ccc(C)cc1)c1cccc(OCCN2CCOCC2)c1 [compound 10],29%
9,CCN(Cc1ccccc1)C(=O)CCCN(C(=O)c1ccc(F)cc1)c1cccc(OCCN2CCOCC2)c1 [compound 11],0%
10,CCN(Cc1ccccc1)C(=O)CCCCN(c1cccc(OCCN2CCOCC2)c1)S(=O)(=O)c1ccc(C)cc1 [compound 12],4%
11,CCN(Cc1ccccc1)C(=O)CCCCN(C(=O)c1ccc(C)cc1)c1cccc(OCCN2CCOCC2)c1 [compound 13],21%
12,CCN(Cc1ccccc1)C(=O)CCCCN(C(=O)c1ccc(F)cc1)c1cccc(OCCN2CCOCC2)c1 [compound 14],25%
13,CN(Cc1ccccc1)C(=O)CCCN(C(=O)Nc1ccccc1)c1cccc(OCCN2CCOCC2)c1 [compound 15],21%
14,Cc1ccc(S(=O)(=O)N(CCCC(=O)N(C)Cc2ccccc2)c2cccc(OCCN3CCOCC3)c2)cc1 [compound 16],21%
15,Cc1ccc(C(=O)N(CCCC(=O)N(C)Cc2ccccc2)c2cccc(OCCN3CCOCC3)c2)cc1 [compound 17],12%
16,CN(Cc1ccccc1)C(=O)CCCN(C(=O)c1ccc(F)cc1)c1cccc(OCCN2CCOCC2)c1 [compound 18],0%
17,CN(Cc1ccccc1)C(=O)CCCCN(C(=O)Nc1ccccc1)c1cccc(OCCN2CCOCC2)c1 [compound 19],5%
18,Cc1ccc(S(=O)(=O)N(CCCCC(=O)N(C)Cc2ccccc2)c2cccc(OCCN3CCOCC3)c2)cc1 [compound 20],8%
19,Cc1ccc(C(=O)N(CCCCC(=O)N(C)Cc2ccccc2)c2cccc(OCCN3CCOCC3)c2)cc1 [compound 21],34%
20,CN(Cc1ccccc1)C(=O)CCCCN(C(=O)c1ccc(F)cc1)c1cccc(OCCN2CCOCC2)c1 [compound 22],23%
21,O=C(CCCN(C(=O)Nc1ccccc1)c1cccc(OCCN2CCOCC2)c1)N(Cc1ccccc1)Cc1ccccc1 [compound 23],48%

# Same assay, conditions: rabbit colon membranes; read-out: Rabbit Colon % Inh
row,SMILES,inhibition
1,O=C(CCCN(C(=O)Nc1ccccc1)c1cccc(OCCN2CCOCC2)c1)N(CCc1ccccc1)Cc1ccccc1 [compound 1],35%
2,O=C(Nc1ccccc1)N(c1cccc(OCCN2CCOCC2)c1)C1CCC(CN(Cc2cccc(Cl)c2)C(=O)C(Cl)(Cl)Cl)C1 (stereo not drawn) [compound 39],4%
3,O=C(Nc1ccccc1)N(CC1CCCC(N(Cc2ccccc2)C(=O)Nc2ccccc2)C1)c1cccc(OCCN2CCOCC2)c1 (stereo not drawn) [compound 40],11%
4,O=C(Nc1ccccc1)N(CC1CCCC(N(Cc2ccccc2)C(=O)CCc2ccccc2)C1)c1cccc(OCCN2CCOCC2)c1 (stereo not drawn) [compound 43],74%
5,O=C(Nc1ccccc1)N(CC1CCCC(N(Cc2ccccc2)C(=O)c2cccc([N+](=O)[O-])c2)C1)c1cccc(OCCN2CCOCC2)c1 (stereo not drawn) [compound 45],67%
6,O=C(Nc1ccccc1)N(CC1CCCC(N(Cc2ccccc2)C(=O)c2ccco2)C1)c1cccc(OCCN2CCOCC2)c1 (stereo not drawn) [compound 48],67%

# Same assay, conditions: rabbit colon membranes; read-out: Rabbit Colon IC50
row,SMILES,pIC50
1,O=C(c1ccc(F)cc1)N(C[C@H]1CCC[C@@H](N(Cc2cccc(Cl)c2)C(=O)C(Cl)(Cl)Cl)C1)c1cccc(OCCN2CCCCC2)c1 [ID 239],7.14
2,O=C(Nc1ccccc1)N(CC1CCCC(N(Cc2ccccc2)C(=O)CCc2ccccc2)C1)c1cccc(OCCN2CCOCC2)c1 (stereo not drawn) [compound 43],6.14
3,O=C(Nc1ccccc1)N(CC1CCCC(N(Cc2ccccc2)C(=O)c2cccc([N+](=O)[O-])c2)C1)c1cccc(OCCN2CCOCC2)c1 (stereo not drawn) [compound 45],5.94
4,O=C(Nc1ccccc1)N(CC1CCCC(N(Cc2ccccc2)C(=O)c2ccco2)C1)c1cccc(OCCN2CCOCC2)c1 (stereo not drawn) [compound 48],6.18

# Same assay, conditions: read-out: Rabbit Colon % Inh
row,SMILES,inhibition
1,O=C(CCCN(C(=O)c1ccc(F)cc1)c1cccc(OCCN2CCOCC2)c1)N(CCc1ccccc1)Cc1ccccc1 [compound 4],75%
